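Growth conditions: 96-well plates. Treatment: test compound, 48 hours, 5 concentrations. Analysis: linear interpolation between bracketing concentrations; unreached endpoints set to highest concentration. GI50 marks 50% less growth. TGI marks complete inhibition of growth.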
Tests used:
Test in all cases: NCI tumour cell line growth inhibition, 48 h
IGROV1 ovarian = test system: IGROV1 ovarian
M14 melanoma = test system: M14 melanoma
MDA-MB-435 = test system: MDA-MB-435
OVCAR-8 ovarian = test system: OVCAR-8 ovarian
SF-295 CNS = test system: SF-295 CNS
SNB-19 CNS = test system: SNB-19 CNS
SNB-75 CNS = test system: SNB-75 CNS
DMS 114 small cell lung = test system: DMS 114 small cell lung
DMS 273 small cell lung = test system: DMS 273 small cell lung
KM20L2 colon = test system: KM20L2 colon
LXFL 529 NSCLC = test system: LXFL 529 NSCLC

| SMILES | GI50 (IGROV1 ovarian) | TGI (IGROV1 ovarian) | GI50 (M14 melanoma) | TGI (M14 melanoma) | GI50 (MDA-MB-435) | TGI (MDA-MB-435) | GI50 (OVCAR-8 ovarian) | TGI (OVCAR-8 ovarian) | GI50 (SF-295 CNS) | TGI (SF-295 CNS) | GI50 (SNB-19 CNS) | TGI (SNB-19 CNS) | GI50 (SNB-75 CNS) | TGI (SNB-75 CNS) | TGI (DMS 114 small cell lung) | TGI (DMS 273 small cell lung) | TGI (KM20L2 colon) | TGI (LXFL 529 NSCLC) |
| --- | --- | --- | --- | --- | --- | --- | --- | --- | --- | --- | --- | --- | --- | --- | --- | --- | --- | --- |
| COC(=O)C(Cc1ccccc1)NC(=O)NC(=O)NC(=O)CI (configuration not stated) | 3.05 µM | 10.1 µM | 2.51 µM | 7.45 µM | 3.38 µM | 13.8 µM | 4.3 µM | 15.9 µM | 16.4 µM | 31.2 µM | 17.6 µM | 36.4 µM | 16.2 µM | 36.7 µM |  |  |  |  |
| Cc1c(C#N)c(=O)[nH]c(=O)n1CCN1CCN(C(=O)NCCCCCCNC(=O)N2CCN(CCn3c(C)c(C#N)c(=O)[nH]c3=O)CC2)CC1 |  | > 100 µM |  | > 100 µM |  |  |  | > 100 µM |  | > 100 µM |  | > 100 µM |  | > 100 µM | > 100 µM | > 100 µM | > 100 µM | > 100 µM |
| C=CC(=O)Nc1cccc(C)c1Nc1cc(-c2cccnc2Cc2c(C)c(OC)cc(OC)c2C)ncn1 | 14.2 µM | 53.9 µM | 22.5 µM | 97.5 µM | 12.1 µM | 31.3 µM | 12 µM | 50 µM | 6.47 µM | 73.9 µM | 7.04 µM | 43.1 µM | 13.2 µM | 91.2 µM |  |  |  |  |
| CNC(=O)OCc1c(COC(=O)NC)c(C)n(-c2ccc(Br)cc2)c1C |  | 19.1 µM |  | 32.5 µM |  | 34 µM |  | 24.8 µM |  | 31.9 µM |  | 44.3 µM |  | 19.1 µM |  |  |  |  |
| COc1ccc(C2=C(Cl)c3cc(OC)c(OC)cc3C2Cl)cc1OC (configuration not stated) |  | 44.2 µM |  | 34.9 µM |  |  |  | 39 µM |  | 33.8 µM |  | 32.1 µM |  | 33.4 µM |  | 30.4 µM | 29.5 µM |  |
| CCCn1c(C)nc2c1C(=O)c1ccccc1C2=O | 14.5 µM | 42.1 µM | 40 µM | > 100 µM | 17.2 µM | 32.9 µM | 31.8 µM | > 100 µM | 13 µM | 41.6 µM | 53.3 µM | > 100 µM | 55.4 µM | > 100 µM |  |  |  |  |
| Nc1ncnc2[nH]ncc12 | 0.744 µM | 4.62 µM | 0.442 µM | 12.4 µM | 0.58 µM | > 56 µM | 0.285 µM | 16.6 µM | 0.401 µM | 6.37 µM | 13.8 µM | > 100 µM | 2.1 µM | > 100 µM |  |  |  |  |
| c1ccc(SC(CCCCC(Sc2ccccc2)Sc2ccccc2)Sc2ccccc2)cc1 |  |  |  | > 100 µM |  |  |  | > 100 µM |  | > 100 µM |  | > 100 µM |  | > 100 µM | > 100 µM | > 100 µM | > 100 µM | > 100 µM |
| C=CCOC1OC(CO[Si](C)(C)C(C)(C)C)C(OCc2ccccc2)C(OCc2ccccc2)C1OCc1ccccc1 (configuration not stated) |  | > 100 µM |  | > 100 µM |  | > 100 µM |  | > 100 µM |  | 54.9 µM |  | 60.3 µM |  | 51.1 µM |  |  |  |  |
| COc1ccc(NC(=O)C/C(C)=N\N=C(N)N)c([N+](=O)[O-])c1 |  | > 100 µM |  | > 100 µM |  |  |  | > 100 µM |  | > 100 µM |  | > 100 µM |  | > 100 µM | > 100 µM | > 100 µM | > 100 µM | > 100 µM |

Source: PubChem BioAssay (NCI)
